Assay results reported in patent US10538681B2, “Aqueous ink for ink jet recording” (Seiko Epson Corporation, priority 2017, dated 2020).

Assay: water-octanol distribution coefficient (log P value)
Assay type: physicochemical
Conditions: octanol/water; value defined by OECD Test Guideline 107
Source text: The higher the log P value, the higher the hydrophobicity, and the lower the log P value, the higher the hydrophilicity.
With `CC(C)CCOCC(O)CO` (stereo not drawn) [3-isopentyloxy-1,2 propanediol] the logP was 0.64.
In the case of `CC(C)CCC(C)(O)C#CC(C)(O)CCC(C)C` (stereo not drawn) [Surfynol DF 110 D, 2,5,8,11-tetramethyl-6-dodecyne-5,8-diol], the logP is reported as 4.18.
Compound `C=C(C)C(=O)OCC(O)CO` (stereo not drawn) [glycerin 1-methacrylate] has a logP of -0.12.

Same assay, conditions: value defined by OECD Test Guideline 107
In the case of `CCCCC(O)CO` (stereo not drawn) [1,2-hexanediol], the “water-octanol distribution coefficient (log P)” value is reported as 0.7.
For `CCCC(=O)OCC(O)COC(=O)CCC` [1,3-dibutyrin], the “water-octanol distribution coefficient (log P)” value was 1.59.
In the case of `CCCCC(CC)C(=O)OCC(O)CO` (stereo not drawn) [2-ethylhexanoate 2,3-dihydroxypropyl], the “water-octanol distribution coefficient (log P)” value is reported as 1.73.
With `CCCCCCCC(O)CCCC(=O)OCC(O)CO` (stereo not drawn) [5-hydroxydodecanoate 2,3-dihydroxypropyl] the “water-octanol distribution coefficient (log P)” value was 2.15.
For `CCCC(=O)OCC(O)CO` (stereo not drawn) [Example 1-butyrine, 1-butyrine], the “water-octanol distribution coefficient (log P)” value was −0.21.
In the case of `CCCCCC(=O)OCC(O)CO` (stereo not drawn) [α-monocaproin], the “water-octanol distribution coefficient (log P)” value is reported as 0.85.
